This is an account of results in US20240254114A1, “PREPARATION OF FUSED AZOLE DERIVATIVES AS NOVEL DIACYLGLYCERIDE 0-ACYLTRANSFERASE 2 INHIBITORS” (Merck Sharp & Dohme LLC, priority 2022, published 2024).

pIC50: −log10 of the molar value. Where two headings read alike, the source gives them in different places.

The target in the assay is human DGAT2 (Homo sapiens (Human), UniProt Q96PD7). Description: DGAT2 Enzymatic Activity Assay. To be noted: 13C18-triolein product by LC/MS/MS.
Where [1] appears, read: Human DGAT2 IC50, hDGAT2 membrane prep from Sf-9 cells.
The mark [2] stands for this setting: read-out: Human DGAT2 IC50, hDGAT2 membrane prep from Sf-9 cells.

Chain of human DGAT2 (Q96PD7 whole entry): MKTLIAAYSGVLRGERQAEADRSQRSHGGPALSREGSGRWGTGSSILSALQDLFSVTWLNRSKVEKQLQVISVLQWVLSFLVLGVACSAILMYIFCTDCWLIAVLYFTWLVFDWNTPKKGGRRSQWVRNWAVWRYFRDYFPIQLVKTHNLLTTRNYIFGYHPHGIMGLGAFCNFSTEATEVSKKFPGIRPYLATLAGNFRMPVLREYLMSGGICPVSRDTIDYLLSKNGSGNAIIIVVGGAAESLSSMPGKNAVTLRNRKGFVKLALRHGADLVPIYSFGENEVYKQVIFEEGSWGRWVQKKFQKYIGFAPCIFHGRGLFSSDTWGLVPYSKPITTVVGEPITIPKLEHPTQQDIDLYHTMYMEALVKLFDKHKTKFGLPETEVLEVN
Protocol: Sf-9 insect cells were maintained in Grace's insect cell culture medium with 10% heated-inactivated fetal bovine serum, 1% Pluronic F-68 and 0.14 μg/ml Kanamycine sulfate at 27° C. in a shaker incubator. After infection with untagged baculovirus expressing human DGAT2 (hDGAT2) at multiplicity of infection (MOI) 3 for 48 hours, cells were harvested. Cell pellets were suspended in buffer containing 10 mM Tris-HCl pH 7.5, 1 mM EDTA, 250 mM sucrose and Complete Protease Inhibitor Cocktail (Sigma Aldrich), and sonicated on ice. Cell debris were removed by centrifugation at 2000×g for 15 minutes. Membrane fractions were isolated by ultracentrifugation (100,000×g), resuspended in the same buffer, and frozen (−80° C.) for later use. The protein concentration was determined with the Pierce™ BCA Protein Assay Kit (Thermo Fisher Scientific).
LC/MS/MS analyses were performed using Thermal Fisher's LX4-TSQ Vantage system. This system consists of an Agilent binary high-performance liquid chromatography (HPLC) pump and a TSQ Vantage triple quadrupole MS/MS instrument. For each sample, 2 μL samples from the top organic layer of in-plate liquid-liquid extraction were injected onto a Thermo Betabasic C4 column (2.1 mm×20 mm, 5 μm particle size). The samples were then eluted using the following conditions; mobile phase: Isopropanol: acetonitrile/10 mM ammonium formate=50/35/15 (v/v/v), flow rate: 0.8 mL/min, temperature: 25° C. Data was acquired in positive mode using a heated electrospray ionization (HESI) interface. […] The peak area was integrated by Xcalibur Quan software. The ratio between the ^13C18 triolein generated in the reaction and spiked in internal standard ^13C21-triolein was used to generate percentage inhibition and IC50 values. […] DGAT2 activity was determined by measuring the amount of enzymatic product ^13C18-triolein (^13C-1,2,3-Tri(cis-9-octadecenoyl)glycerol) using the membrane prep mentioned above. The assay was carried out in ABgene 384-well assay plates in a final volume of 25 μL at rt.

As to `CC1(NC(=O)c2nc3ccc(Oc4ncccc4OCC(F)(F)F)cc3s2)CCS(=O)(=O)CC1` [Example 91, N-(4-Methyl-1,1-dioxidotetrahydro-2H-thiopyran-4-yl)-6-((3-(2,2,2-trifluoroethoxy)pyridin-2-yl)oxy)benzo[d]thiazole-2-carboxamide], the pIC50 under setting [1] is 8.89.

Consider `CC1(NC(=O)c2nc3ccc(Oc4ncccc4OCC(F)(F)F)cc3s2)CS(=O)(=O)C1` [Example 92, N-(3-methyl-1,1-dioxo-thietan-3-yl)-6-[[3-(2,2,2-trifluoroethoxy)-2-pyridyl]oxy]-1,3-benzothiazole-2-carboxamide], for which the pIC50 under setting [2] is 7.92.

For `O=C(N[C@H]1CCOC1)c1nc2ccc(Oc3ncccc3OCC(F)(F)F)cc2s1` [Example 93, N-[(3S)-tetrahydrofuran-3-yl]-6-[[3-(2,2,2-trifluoroethoxy)-2-pyridyl]oxy]-1,3-benzothiazole-2-carboxamide], under setting [2], the pIC50 was 6.33.

`CC1(NC(=O)c2nc3ccc(Oc4ncc(Cl)cc4OCC(F)F)nc3s2)CCS(=O)(=O)CC1` [Example 94, 5-((5-Chloro-3-(2,2-difluoroethoxy)pyridin-2-yl)oxy)-N-(4-methyl-1,1-dioxidotetrahydro-2H-thiopyran-4-yl)thiazolo[5,4-b]pyridine-2-carboxamide] had a pIC50 under setting [1] of 8.70.

For `CC1(NC(=O)c2nc3ccc(Oc4ncc(Cl)cc4OCC(F)F)nc3s2)CS(=O)(=O)C1` [Example 95], under setting [2], the pIC50 is 8.00.

`O=C(N[C@H]1CCCC(F)(F)[C@@H]1O)c1nc2ccc(Oc3ncc(Cl)cc3OCC(F)F)nc2s1` [Example 96, 5-((5-chloro-3-(2,2-difluoroethoxy)pyridin-2-yl)oxy)-N-((1S,2R)-3,3-difluoro-2-hydroxycyclohex-yl)thiazolo[5,4-b]pyridine-2-carboxamide]: the pIC50 under setting [2] is 8.48.

The compound `CC1(NC(=O)c2nc3cnc(Oc4ncc(Cl)cc4OCC(F)F)cc3s2)CCS(=O)(=O)CC1` [Example 97, 6-[[5-chloro-3-(2,2-difluoroethoxy)-2-pyridyl]oxy]-N-(4-methyl-1,1-dioxo-thian-4-yl)thiazolo[4,5-c]pyridine-2-carboxamide] gave a pIC50 under setting [1] of 8.60.

Regarding `CC1(NC(=O)c2nc3ncc(Oc4ncccc4OCC(F)(F)F)cc3o2)CCS(=O)(=O)CC1` [Example 98, N-(4-methyl-1,1-dioxidotetrahydro-2H-thiopyran-4-yl)-6-((3-(2,2,2-trifluoroethoxy)pyridin-2-yl)oxy)oxazolo[4,5-b]pyridine-2-carboxamide], the pIC50 under setting [1] was 6.17.

On to `Cn1c(C(=O)NC2(C)CCS(=O)(=O)CC2)cc2ccc(Oc3ncc(Cl)cc3OCC(F)F)nc21` [Example 99, 6-((5-Chloro-3-(2,2-difluoroethoxy)pyridin-2-yl)oxy)-1-methyl-N-(4-methyl-1,1-dioxidotetrahydro-2H-thiopyran-4-yl)-1H-pyrrolo[2,3-b]pyridine-2-carboxamide], for which the pIC50 under setting [1] is 8.96.

As usually defined, the pIC50 is −log10 of the IC50, conventionally taken in molar units.
